In US9096624B2 (OSI Pharmaceuticals, LLC, priority 2009, dated 2015):
Where “and” joins values, the source holds several entries; their conditions need not be identical. Identical values can stand only once.

Legend:
[1] = molecular target: T1, FAK (Homo sapiens, UniProt Q05397); experiment: Cell-based capture ELISA for inhibition of FAK autophosphorylation [pY397] in U87MG cells
[2] = molecular target: T1, FAK; experiment: biochemical
[3] = molecular target: T1, FAK; experiment: Cell-based capture ELISA for inhibition of FAK autophosphorylation [pY397] in MiaPaCa2 cells; conditions: MIA-PaCa2 cells, + 50% mouse plasma (Table 3); read-out: Mean FAK Cell Mechanistic IC50 + 50% mP MIA-PaCa2
Description: Cell-Based Assays for Inhibition of FAK Autophosphorylation: MiaPaCa2 and U87MG
ELISA kit from Invitrogen (KHO0441).
Reagents Provided in Biosource FAK [pY397]
The cells were then suspended in cell assay medium.

[4] = Mean FAK Cell Mechanistic IC50 + 50% mP U87MG, + 50% mouse plasma
[5] = U87MG FAK Cell Mech IC50 +hP, + human plasma
[6] = U87MG FAK Cell Mech IC50 +mP, + mouse plasma

T1 sequence (Q05397 whole entry): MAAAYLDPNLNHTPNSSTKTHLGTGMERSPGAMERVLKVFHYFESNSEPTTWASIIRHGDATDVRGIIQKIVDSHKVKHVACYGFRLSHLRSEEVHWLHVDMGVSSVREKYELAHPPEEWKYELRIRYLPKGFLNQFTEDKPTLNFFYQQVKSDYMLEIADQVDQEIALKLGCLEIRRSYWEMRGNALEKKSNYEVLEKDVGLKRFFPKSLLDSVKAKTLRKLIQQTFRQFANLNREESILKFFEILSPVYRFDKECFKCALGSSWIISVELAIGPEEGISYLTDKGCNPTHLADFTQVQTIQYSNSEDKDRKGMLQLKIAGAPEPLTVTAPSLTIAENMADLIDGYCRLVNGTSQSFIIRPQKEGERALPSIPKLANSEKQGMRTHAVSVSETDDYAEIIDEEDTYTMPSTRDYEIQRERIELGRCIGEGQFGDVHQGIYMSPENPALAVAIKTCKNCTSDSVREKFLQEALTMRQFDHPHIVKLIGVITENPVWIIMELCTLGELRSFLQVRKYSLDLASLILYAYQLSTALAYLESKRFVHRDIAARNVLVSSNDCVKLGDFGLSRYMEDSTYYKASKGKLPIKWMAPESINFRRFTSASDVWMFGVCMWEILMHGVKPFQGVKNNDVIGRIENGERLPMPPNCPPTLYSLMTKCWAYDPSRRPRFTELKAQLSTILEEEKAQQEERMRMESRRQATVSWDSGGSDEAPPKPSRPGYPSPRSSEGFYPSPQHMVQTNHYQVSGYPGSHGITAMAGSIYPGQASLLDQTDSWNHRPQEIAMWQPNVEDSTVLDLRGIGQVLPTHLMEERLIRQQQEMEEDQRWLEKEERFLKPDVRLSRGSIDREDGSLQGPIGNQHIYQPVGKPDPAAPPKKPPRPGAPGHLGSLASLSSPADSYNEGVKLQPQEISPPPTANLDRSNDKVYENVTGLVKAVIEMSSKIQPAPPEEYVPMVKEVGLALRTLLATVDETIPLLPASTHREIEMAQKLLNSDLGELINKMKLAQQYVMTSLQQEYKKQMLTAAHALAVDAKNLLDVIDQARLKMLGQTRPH

SMILES	IC50 [1, 4] [µM]	IC50 [2] [µM]	IC50 [1, 5] [µM]	IC50 [1, 6]	IC50 [3] [µM]
CCOP(=O)(Cc1ccc(Nc2ncc(C(F)(F)F)c(Nc3ccc(C4CCC(O)(C(=O)O)CC4)c4c3C(=O)N(C)C4)n2)c(OC)c1)OCC (single isomer, unassigned) [Example 278, 4-(7-{2-[4-(Diethoxy-phosphorylmethyl)-2-methoxy-phenylamino]-5-trifluoromethyl-pyrimidin-4-ylamino}-2-methyl-1-oxo-2,3-dihydro-1H-isoindol-4-yl)-1-hydroxy-cyclohexanecarboxylic acid]	1 to 10	< 1	–	–	–
COc1cc(P(C)(C)=O)ccc1Nc1ncc(Cl)c(Nc2ccccc2C(=O)NC(C)C)n1 [Cpd A, reference compound]	–	–	> 4	3.69 µM and > 4 µM (3×)	–
COc1cc(P(C)(C)=O)ccc1Nc1ncc(Cl)c(Nc2cccc3c2C(=O)N(C)C3)n1 [Cpd B, reference compound]	–	–	> 4	0.257 µM and 0.54 µM	–
CCOP(=O)(Cc1ccc(Nc2ncc(C(F)(F)F)c(Nc3c(F)cccc3C(=O)NC)n2)c(OC)c1)OCC [Example 154, Diethyl (4-{[4-{[2-fluoro-6-(methylcarbamoyl)phenyl]amino}-5-(trifluoromethyl)pyrimidin-2-yl]amino}-3-methoxybenzyl)phosphonate]	< 1	< 1	–	–	–
COCCOP(=O)(Cc1ccc(Nc2ncc(C(F)(F)F)c(Nc3ccc([C@H]4CC[C@H](O)CC4)c4c3C(=O)N(C)C4)n2)c(OC)c1)OCCOC [Example 217, Bis(2-methoxyethyl) (4-{[4-{[7-(trans-4-hydroxycyclohexyl)-2-methyl-3-oxo-2,3-dihydro-1H-isoindol-4-yl]amino}-5-(trifluoromethyl)pyrimidin-2-yl]amino}-3-methoxybenzyl)phosphonate]	–	< 1	–	–	< 1
COCCOP(=O)(Cc1ccc(Nc2ncc(C(F)(F)F)c(Nc3cccc4c3C(=O)N(C)C4)n2)c(OC)c1)OCCOC [Example 219, Bis(2-methoxyethyl) [3-methoxy-4-({4-[(2-methyl-3-oxo-2,3-dihydro-1H-isoindol-4-yl)amino]-5-(trifluoromethyl)pyrimidin-2-yl}amino)benzyl]phosphonate]	–	< 1	–	–	< 1
CNC(=O)c1ccccc1Nc1nc(Nc2ccc(CP(=O)(OCCOC)OCCOC)cc2OC)ncc1C(F)(F)F [Example 221, Bis(2-methoxyethyl) (3-methoxy-4-{[4-{[2-(methylcarbamoyl)phenyl]amino}-5-(trifluoromethyl)pyrimidin-2-yl]amino}benzyl)phosphonate]	–	< 1	–	–	< 1
CCOP(=O)(Cc1ccc(Nc2ncc(C(F)(F)F)c(Nc3ccc(N4CCN(C(C)=O)CC4)c4c3C(=O)N(C)C4)n2)c(OC)c1)OCC [Example 223, Diethyl (4-{[4-{[7-(4-acetylpiperazin-1-yl)-2-methyl-3-oxo-2,3-dihydro-1H-isoindol-4-yl]amino}-5-(trifluoromethyl)pyrimidin-2-yl]amino}-3-methoxybenzyl)phosphonate]	–	< 1	–	–	< 1
CCOP(=O)(Cc1ccc(Nc2ncc(C(F)(F)F)c(Nc3ccc(N4CC(O)C4)c4c3C(=O)N(C)C4)n2)c(OC)c1)OCC [Example 229, Diethyl (4-{[4-{[7-(3-hydroxyazetidin-1-yl)-2-methyl-3-oxo-2,3-dihydro-1H-isoindol-4-yl]amino}-5-(trifluoromethyl)pyrimidin-2-yl]amino}-3-methoxybenzyl)phosphonate]	–	< 1	–	–	< 1
CCOP(=O)(Cc1ccc(Nc2ncc(C(F)(F)F)c(Nc3ccc([C@H]4CC[C@H](O)CC4)nc3C(=O)NC)n2)c(OC)c1)OCC [Example 232, Diethyl (4-{[4-{[6-(trans-4-hydroxycyclohexyl)-2-(methylcarbamoyl)pyridin-3-yl]amino}-5-(trifluoromethyl)pyrimidin-2-yl]amino}-3-methoxybenzyl)phosphonate]	–	< 1	–	–	< 1
CCOP(=O)(Cc1ccc(Nc2ncc(C(F)(F)F)c(Nc3ccc(C4CCC(N(C)C)CC4)c4c3C(=O)N(C)C4)n2)c(OC)c1)OCC (stereo not drawn) [Example 233, Diethyl (4-{[4-({7-[4-(dimethylamino)cyclohexyl]-2-methyl-3-oxo-2,3-dihydro-1H-isoindol-4-yl}amino)-5-(trifluoromethyl)pyrimidin-2-yl]amino}-3-methoxybenzyl)phosphonate]	–	< 1	–	–	< 1
CCOP(=O)(Cc1ccc(Nc2ncc(C(F)(F)F)c(Nc3ccc([C@H]4CC[C@H](N5CCN(C(C)=O)CC5)CC4)c4c3C(=O)N(C)C4)n2)c(OC)c1)OCC [Example 238, diethyl (4-{[4-({7-[trans-4-(4-acetylpiperazin-1-yl)cyclohexyl]-2-methyl-3-oxo-2,3-dihydro-1H-isoindol-4-yl}amino)-5-(trifluoromethyl)pyrimidin-2-yl]amino}-3-methoxybenzyl)phosphonate]	–	< 1	–	–	< 1
CCOP(=O)(Cc1ccc(Nc2ncc(C(F)(F)F)c(Nc3ccc(C4CCC(N5CCCC5)CC4)c4c3C(=O)N(C)C4)n2)c(OC)c1)OCC (stereo not drawn) [Example 242]	–	< 1	–	–	< 1
CCOP(=O)(Cc1ccc(Nc2ncc(C(F)(F)F)c(Nc3ccc([C@@H]4C[C@@H](O)[C@@H](O)C4)c4c3C(=O)N(C)C4)n2)c(OC)c1)OCC [Example 243, Diethyl (4-{[4-({7-[-3,4-dihydroxycyclopentyl]-2-methyl-3-oxo-2,3-dihydro-1H-isoindol-4-yl}amino)-5-(trifluoromethyl)pyrimidin-2-yl]amino}-3-methoxybenzyl) phosphonate]	–	< 1	–	–	< 1
CCOc1cc(CP(=O)(OCC)OCC)ccc1Nc1ncc(C(F)(F)F)c(Nc2ccc([C@H]3CC[C@@H](C(=O)OCC)CC3)c3c2C(=O)N(C)C3)n1 [Example 244, Ethyl cis-4-(7-{[2-({4-[(diethoxyphosphoryl)methyl]-2-ethoxyphenyl}amino)-5-(trifluoromethyl)pyrimidin-4-yl]amino}-2-methyl-1-oxo-2,3-dihydro-1H-isoindol-4-yl)cyclohexanecarboxylate]	–	< 1	–	–	1 to 10
CCOc1cc(CP(=O)(OCC)OCC)ccc1Nc1ncc(C(F)(F)F)c(Nc2ccc([C@H]3CC[C@H](C(=O)OCC)CC3)c3c2C(=O)N(C)C3)n1 [Example 245, Ethyl trans-4-(7-{[2-({4-[(diethoxyphosphoryl)methyl]-2-ethoxyphenyl}amino)-5-(trifluoromethyl)pyrimidin-4-yl]amino}-2-methyl-1-oxo-2,3-dihydro-1H-isoindol-4-yl)cyclohexanecarboxylate]	–	< 1	–	–	1 to 10
CCOP(=O)(Cc1ccc(Nc2ncc(C(F)(F)F)c(Nc3ccc(C4CCNCC4)c4c3C(=O)N(C)C4)n2)cc1)OCC [Example 247, Diethyl (4-{[4-{[2-methyl-3-oxo-7-(piperidin-4-yl)-2,3-dihydro-1H-isoindol-4-yl]amino}-5-(trifluoromethyl)pyrimidin-2-yl]amino}benzyl)phosphonate]	–	< 1	–	–	< 1
CCOP(=O)(Cc1ccc(Nc2ncc(Cl)c(Nc3ccc([C@H]4CC[C@H](O)CC4)c4c3C(=O)N(C)C4)n2)c(OC)c1)OCC [Example 250, Diethyl {4-[(5-chloro-4-{[7-(trans-4-hydroxycyclohexyl)-2-methyl-3-oxo-2,3-dihydro-1H-isoindol-4-yl]amino}pyrimidin-2-yl)amino]-3-methoxybenzyl}phosphonate]	–	< 1	–	–	< 1
CCOP(=O)(Cc1ccc(Nc2ncc(C(F)(F)F)c(Nc3ccc(N4CCN(CC(=O)O)CC4)c4c3C(=O)N(C)C4)n2)cc1)OCC [Example 251, [4-(7-{[2-({4-[(Diethoxyphosphoryl)methyl]phenyl}amino)-5-(trifluoromethyl)pyrimidin-4-yl]amino}-2-methyl-1-oxo-2,3-dihydro-1H-isoindol-4-yl)piperazin-1-yl]acetic acid]	–	< 1	–	–	< 1
CCOP(=O)(Cc1ccc(Nc2ncc(C(F)(F)F)c(Nc3ccc(C4CCN(C)CC4)c4c3C(=O)N(C)C4)n2)cc1)OCC [Example 253, Diethyl (4-{[4-{[2-methyl-7-(1-methylpiperidin-4-yl)-3-oxo-2,3-dihydro-1H-isoindol-4-yl]amino}-5-(trifluoromethyl)pyrimidin-2-yl]amino}benzyl)phosphonate]	–	< 1	–	–	< 1
CCOc1cc(CP(=O)(OCC)OCC)ccc1Nc1ncc(C(F)(F)F)c(Nc2ccc([C@H]3CC[C@@H](C(=O)O)CC3)c3c2C(=O)N(C)C3)n1 [Example 257, cis-4-(7-{[2-({4-[(Diethoxyphosphoryl)methyl]-2-ethoxyphenyl}amino)-5-(trifluoromethyl)pyrimidin-4-yl]amino}-2-methyl-1-oxo-2,3-dihydro-1H-isoindol-4-yl)cyclohexanecarboxylic acid]	–	< 1	–	–	< 1
CCOc1cc(CP(=O)(OCC)OCC)ccc1Nc1ncc(C(F)(F)F)c(Nc2ccc([C@H]3CC[C@H](C(=O)O)CC3)c3c2C(=O)N(C)C3)n1 [Example 258, Trans-4-(7-{[2-({4-[(diethoxyphosphoryl)methyl]-2-ethoxyphenyl}amino)-5-(trifluoromethyl)pyrimidin-4-yl]amino}-2-methyl-1-oxo-2,3-dihydro-1H-isoindol-4-yl)cyclohexanecarboxylic acid]	–	< 1	–	–	< 1
CCOP(=O)(Cc1ccc(Nc2ncc(C(F)(F)F)c(Nc3ccccc3C(=O)O)n2)c(OC)c1)OCC [Example 290, 2-{[2-({4-[(Diethoxyphosphoryl)methyl]-2-methoxyphenyl}amino)-5-(trifluoromethyl)pyrimidin-4-yl]amino}benzoic acid]	1 to 10	–	–	–	–
